Structures can show the parent of a compound that is named as a salt.
Assays:
Conditions in all cases: exposure time: 72 h
[1] = system: E21 (patient-derived glioblastoma stem cells of mesenchymal subtype); test: phenotypic distance (Euclidean, principal components) from DMSO controls (arbitrary units); higher = stronger morphological change
[2] = system: E13 (patient-derived glioblastoma stem cells of classical subtype); test: as above
[3] = system: E28 (patient-derived glioblastoma stem cells of classical subtype); test: as above
[4] = system: E34 (patient-derived glioblastoma stem cells of proneural subtype); test: as above
[5] = system: E31 (patient-derived glioblastoma stem cells of proneural subtype); test: as above
[6] = system: E57 (patient-derived glioblastoma stem cells of mesenchymal subtype); test: as above
[7] = system: FT3469 (normal neural stem cell line); test: as above
[8] = system: E21; test: surviving fraction (nuclei count normalised to DMSO); higher = more cells surviving (less toxic)
[9] = system: E13; test: as above
[10] = system: E28; test: as above
[11] = system: E34; test: as above
[12] = system: E31; test: as above
[13] = system: E57; test: as above
[14] = system: FT3469; test: as above
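Throughout, for phenotypic distance (Euclidean, principal components) from DMSO controls: cell Painting imaging in 384-well plates, CellProfiler features reduced to at least 20 principal components, Euclidean distance versus same-plate DMSO vehicle wells (0.1% v/v), median over six images per well.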
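Throughout, for surviving fraction (nuclei count normalised to DMSO): nuclei counted by high-content imaging of Hoechst-stained cells in laminin-coated 384-well plates, relative to 0.1% DMSO vehicle wells, with staurosporine as cell-death control.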

CCCCCCC[N+](CC)(CC)CCCCc1ccc(Cl)cc1 [Clofilium tosylate]
Conditions	phenotypic distance	surviving fraction
[1], 4.1 nM	0.676	–
[1], 12.3 nM	1	–
[1], 37 nM	1.04	–
[1], 111.1 nM	1.16	–
[1], 333.3 nM	1.29	–
[1], 1000 nM	1.68	–
[1], 3000 nM	3.13	–
[2], 4.1 nM	0.802	–
[2], 12.3 nM	1.25	–
[2], 37 nM	0.557	–
[2], 111.1 nM	0.985	–
[2], 333.3 nM	0.488	–
[2], 1000 nM	0.667	–
[2], 3000 nM	1.83	–
[3], 4.1 nM	0.664	–
[3], 12.3 nM	1.16	–
[3], 37 nM	0.464	–
[3], 111.1 nM	0.925	–
[3], 333.3 nM	0.998	–
[3], 1000 nM	1.17	–
[3], 3000 nM	1.84	–
[4], 4.1 nM	1	–
[4], 12.3 nM	1.05	–
[4], 37 nM	0.94	–
[4], 111.1 nM	1.17	–
[4], 333.3 nM	1.13	–
[4], 1000 nM	1.33	–
[4], 3000 nM	1.86	–
[5], 4.1 nM	0.758	–
[5], 12.3 nM	0.742	–
[5], 37 nM	0.443	–
[5], 111.1 nM	0.89	–
[5], 333.3 nM	0.62	–
[5], 1000 nM	1.43	–
[5], 3000 nM	2.44	–
[6], 4.1 nM	0.657	–
[6], 12.3 nM	0.645	–
[6], 37 nM	0.931	–
[6], 111.1 nM	0.93	–
[6], 333.3 nM	0.68	–
[6], 1000 nM	0.764	–
[6], 3000 nM	1.73	–
[7], 4.1 nM	0.575	–
[7], 12.3 nM	1.1	–
[7], 37 nM	0.53	–
[7], 111.1 nM	1.01	–
[7], 333.3 nM	0.917	–
[7], 1000 nM	1.08	–
[7], 3000 nM	1.3	–
[8], 4.1 nM	–	1
[8], 12.3 nM	–	1.11
[8], 37 nM	–	1.1
[8], 111.1 nM	–	1
[8], 333.3 nM	–	0.976
[8], 1000 nM	–	1.12
[8], 3000 nM	–	0.609
[9], 4.1 nM	–	1.17
[9], 12.3 nM	–	1.06
[9], 37 nM	–	0.817
[9], 111.1 nM	–	0.945
[9], 333.3 nM	–	0.896
[9], 1000 nM	–	0.937
[9], 3000 nM	–	0.609
[10], 4.1 nM	–	0.984
[10], 12.3 nM	–	1.28
[10], 37 nM	–	0.96
[10], 111.1 nM	–	1.18
[10], 333.3 nM	–	1.16
[10], 1000 nM	–	1.05
[10], 3000 nM	–	0.485
[11], 4.1 nM	–	1.09
[11], 12.3 nM	–	1.07
[11], 37 nM	–	0.961
[11], 111.1 nM	–	0.954
[11], 333.3 nM	–	0.998
[11], 1000 nM	–	1.02
[11], 3000 nM	–	0.813
[12], 4.1 nM	–	0.763
[12], 12.3 nM	–	1.03
[12], 37 nM	–	1.04
[12], 111.1 nM	–	0.913
[12], 333.3 nM	–	1.01
[12], 1000 nM	–	0.95
[12], 3000 nM	–	0.452
[13], 4.1 nM	–	1.1
[13], 12.3 nM	–	0.992
[13], 37 nM	–	1.14
[13], 111.1 nM	–	0.977
[13], 333.3 nM	–	1.02
[13], 1000 nM	–	0.959
[13], 3000 nM	–	0.866
[14], 4.1 nM	–	1.12
[14], 12.3 nM	–	1.26
[14], 37 nM	–	0.944
[14], 111.1 nM	–	1.13
[14], 333.3 nM	–	1.13
[14], 1000 nM	–	1.07
[14], 3000 nM	–	0.838

Source: the supplement of paper PMC13207355
